Reference: ChEMBL document CHEMBL1938343, “Lead optimisation of selective non-zinc binding inhibitors of MMP13. Part 2” (Bioorg Med Chem Lett, 2012)
pEC50, pIC50: −log10 of the molar value.

Columns and labels:
[1] = Apparent permeability across apical to basolateral side in human Caco2 cells at 10 uM; type: ADME, cell-based; details: Caco-2
[2] = Volume of distribution at steady state in rat at 2 mg/kg, iv; type: ADME, organism-based; parameters: dose 2 mg/kg, route intravenous; details: in vivo, read-out: Vdss
[3] = Fraction unbound in dog; type: ADME, organism-based, Canis lupus familiaris; details: in vivo
[4] = Half life in rat at 2 mg/kg, iv; type: ADME, organism-based; parameters: dose 2 mg/kg, route intravenous; details: in vivo
Cytochrome P450 2C19 = Cytochrome P450 2C19 (Homo sapiens, UniProt P33261); assay: Inhibition of CYP2C19; type: ADME; details: read-out: IC50
Sequence of Cytochrome P450 2C19 (P33261 whole entry): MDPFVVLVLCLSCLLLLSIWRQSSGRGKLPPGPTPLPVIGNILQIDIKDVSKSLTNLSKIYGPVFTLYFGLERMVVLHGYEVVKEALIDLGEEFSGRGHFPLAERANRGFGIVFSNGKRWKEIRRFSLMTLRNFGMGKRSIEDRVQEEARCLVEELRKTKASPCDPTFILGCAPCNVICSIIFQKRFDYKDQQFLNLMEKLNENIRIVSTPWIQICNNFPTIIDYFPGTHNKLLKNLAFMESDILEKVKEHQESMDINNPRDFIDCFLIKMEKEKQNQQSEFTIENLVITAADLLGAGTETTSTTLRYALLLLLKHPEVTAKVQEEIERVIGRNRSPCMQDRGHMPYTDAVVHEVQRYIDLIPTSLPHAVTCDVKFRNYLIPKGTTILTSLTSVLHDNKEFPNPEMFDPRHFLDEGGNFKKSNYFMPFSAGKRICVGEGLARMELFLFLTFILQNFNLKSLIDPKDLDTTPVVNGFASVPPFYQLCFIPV

Hepatocyte = assay: Intrinsic clearance in Sprague-Dawley rat hepatocytes assessed per 10^6 cells; type: ADME, cell-based
Interstitial collagenase = target: T1, Interstitial collagenase (Homo sapiens, UniProt P03956); assay: Inhibition of MMP1 using Mca-Pro-cyclohexyl-Ala-Gly-Nva-His-Ala- Dap(Dnp)-NH2 as substrate by fluorometric analysis
T1 sequence (P03956 whole entry): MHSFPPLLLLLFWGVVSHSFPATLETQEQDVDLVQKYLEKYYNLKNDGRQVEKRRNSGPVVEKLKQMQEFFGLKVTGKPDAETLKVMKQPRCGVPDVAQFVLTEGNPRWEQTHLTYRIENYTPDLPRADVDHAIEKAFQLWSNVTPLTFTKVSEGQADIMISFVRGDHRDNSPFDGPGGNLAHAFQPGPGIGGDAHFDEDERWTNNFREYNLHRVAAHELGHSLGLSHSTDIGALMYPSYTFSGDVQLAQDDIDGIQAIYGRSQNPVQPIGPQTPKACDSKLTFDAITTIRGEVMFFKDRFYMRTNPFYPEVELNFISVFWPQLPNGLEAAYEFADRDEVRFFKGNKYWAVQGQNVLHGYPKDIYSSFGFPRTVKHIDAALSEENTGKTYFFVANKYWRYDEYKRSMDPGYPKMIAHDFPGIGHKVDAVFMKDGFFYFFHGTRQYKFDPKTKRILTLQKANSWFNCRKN

[5] = Thermodynamic solubility of the compound
[6] = Half life in dog at 1 mg/kg, iv and 1 mg/kg, po; type: ADME, organism-based, Canis lupus familiaris; details: in vivo
[7] = Fraction unbound in rat; type: ADME, organism-based; details: in vivo
Cytochrome P450 2C9 = Cytochrome P450 2C9 (Homo sapiens, UniProt P11712); assay: Inhibition of CYP2C9; type: ADME; details: read-out: IC50
Sequence of Cytochrome P450 2C9 (P11712 whole entry): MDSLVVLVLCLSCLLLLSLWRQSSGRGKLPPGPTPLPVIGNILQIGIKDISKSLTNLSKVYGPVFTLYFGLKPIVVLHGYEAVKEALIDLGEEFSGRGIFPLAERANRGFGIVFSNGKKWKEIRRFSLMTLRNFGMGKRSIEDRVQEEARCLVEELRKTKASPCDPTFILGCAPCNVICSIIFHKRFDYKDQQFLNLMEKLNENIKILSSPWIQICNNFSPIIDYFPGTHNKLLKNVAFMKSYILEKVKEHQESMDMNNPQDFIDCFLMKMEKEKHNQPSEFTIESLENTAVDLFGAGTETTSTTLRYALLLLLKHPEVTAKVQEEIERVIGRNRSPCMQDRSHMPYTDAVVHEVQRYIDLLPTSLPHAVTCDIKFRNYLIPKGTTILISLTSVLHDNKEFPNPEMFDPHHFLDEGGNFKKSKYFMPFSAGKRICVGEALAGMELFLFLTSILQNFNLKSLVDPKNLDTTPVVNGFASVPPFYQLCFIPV

[8] = Intrinsic clearance in human hepatocytes assessed per 10^6 cells; type: ADME, cell-based, Hepatocyte; details: read-out: CLH
[9] = Cytotoxicity in mouse spleen macrophages assessed as phospholipidosis; details: Macrophage
[10] = target: T2, Matrix metalloproteinase-19 (Homo sapiens, UniProt Q99542); assay: Inhibition of MMP19 using Mca-Pro-cyclohexyl-Ala-Gly-Nva-His-Ala- Dap(Dnp)-NH2 as substrate by fluorometric analysis
T2 sequence (Q99542 whole entry): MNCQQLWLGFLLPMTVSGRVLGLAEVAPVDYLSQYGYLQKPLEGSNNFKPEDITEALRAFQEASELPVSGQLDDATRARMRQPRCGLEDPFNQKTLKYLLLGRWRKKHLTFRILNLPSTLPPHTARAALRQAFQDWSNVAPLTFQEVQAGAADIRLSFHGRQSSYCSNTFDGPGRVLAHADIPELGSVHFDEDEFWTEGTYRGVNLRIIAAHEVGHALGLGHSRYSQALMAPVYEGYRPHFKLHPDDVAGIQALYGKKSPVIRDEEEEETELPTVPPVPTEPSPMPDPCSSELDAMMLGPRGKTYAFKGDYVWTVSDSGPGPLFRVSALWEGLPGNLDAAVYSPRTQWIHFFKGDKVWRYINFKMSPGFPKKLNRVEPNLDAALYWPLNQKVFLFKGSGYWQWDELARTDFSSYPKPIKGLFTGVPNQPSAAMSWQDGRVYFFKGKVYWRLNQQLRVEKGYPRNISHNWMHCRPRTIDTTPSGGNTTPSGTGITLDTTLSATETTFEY

[11] = Fraction unbound in human; type: ADME, organism-based; details: in vivo
[12] = Renal elimination in rat at 2 mg/kg, iv; type: ADME, organism-based; parameters: dose 2 mg/kg, route intravenous; details: urine, read-out: Ae
Rattus norvegicus = assay: Oral bioavailability in rat; type: ADME, organism-based; details: in vivo
[13] = Apparent permeability across basolateral to apical side in human Caco2 cells at 10 uM; type: ADME, cell-based; details: Caco-2
[14] = target: 72 kDa type IV collagenase (Homo sapiens, UniProt P08253); assay: Inhibition of MMP2 using Mca-Pro-cyclohexyl-Ala-Gly-Nva-His-Ala- Dap(Dnp)-NH2 as substrate by fluorometric analysis; details: read-out: IC50
Sequence of 72 kDa type IV collagenase (P08253 whole entry): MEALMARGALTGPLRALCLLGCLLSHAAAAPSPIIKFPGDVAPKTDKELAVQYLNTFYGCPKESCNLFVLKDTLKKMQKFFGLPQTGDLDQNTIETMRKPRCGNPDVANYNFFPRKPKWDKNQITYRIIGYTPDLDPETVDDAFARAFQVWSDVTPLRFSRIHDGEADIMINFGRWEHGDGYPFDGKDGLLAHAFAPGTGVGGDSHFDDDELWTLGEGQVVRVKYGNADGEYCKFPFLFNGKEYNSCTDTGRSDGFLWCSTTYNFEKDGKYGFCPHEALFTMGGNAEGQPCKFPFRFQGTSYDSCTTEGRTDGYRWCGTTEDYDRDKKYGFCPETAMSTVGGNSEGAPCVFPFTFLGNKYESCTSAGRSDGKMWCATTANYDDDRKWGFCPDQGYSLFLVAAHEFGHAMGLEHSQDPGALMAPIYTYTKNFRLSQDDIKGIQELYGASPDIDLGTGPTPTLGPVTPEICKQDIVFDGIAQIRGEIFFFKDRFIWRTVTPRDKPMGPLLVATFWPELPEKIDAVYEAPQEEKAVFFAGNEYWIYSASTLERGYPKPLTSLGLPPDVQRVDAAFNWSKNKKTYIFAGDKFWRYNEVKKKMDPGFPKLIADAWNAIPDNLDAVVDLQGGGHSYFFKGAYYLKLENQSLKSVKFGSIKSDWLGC

Cytochrome P450 2D6 = Cytochrome P450 2D6 (Homo sapiens, UniProt P10635); assay: Inhibition of CYP2D6; type: ADME; details: read-out: IC50
Sequence of Cytochrome P450 2D6 (P10635 whole entry): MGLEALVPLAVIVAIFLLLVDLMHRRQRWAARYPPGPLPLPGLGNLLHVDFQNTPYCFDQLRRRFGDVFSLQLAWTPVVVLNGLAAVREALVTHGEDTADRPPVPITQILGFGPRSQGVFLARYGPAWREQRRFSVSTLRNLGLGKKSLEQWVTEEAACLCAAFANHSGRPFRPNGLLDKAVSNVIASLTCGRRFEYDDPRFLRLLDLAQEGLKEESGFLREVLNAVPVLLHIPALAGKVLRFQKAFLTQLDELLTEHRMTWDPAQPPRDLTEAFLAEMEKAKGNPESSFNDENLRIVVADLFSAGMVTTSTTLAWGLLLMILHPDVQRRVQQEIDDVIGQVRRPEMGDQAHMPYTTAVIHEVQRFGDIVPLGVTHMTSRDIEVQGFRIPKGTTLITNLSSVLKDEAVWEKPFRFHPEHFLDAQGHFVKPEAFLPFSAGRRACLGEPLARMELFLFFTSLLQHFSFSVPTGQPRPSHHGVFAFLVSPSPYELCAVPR

[15] = target: Matrix metalloproteinase-9 (Homo sapiens, UniProt P14780); assay: Inhibition of MMP9 using Mca-Pro-cyclohexyl-Ala-Gly-Nva-His-Ala- Dap(Dnp)-NH2 as substrate by fluorometric analysis; details: read-out: IC50
Sequence of Matrix metalloproteinase-9 (P14780 whole entry): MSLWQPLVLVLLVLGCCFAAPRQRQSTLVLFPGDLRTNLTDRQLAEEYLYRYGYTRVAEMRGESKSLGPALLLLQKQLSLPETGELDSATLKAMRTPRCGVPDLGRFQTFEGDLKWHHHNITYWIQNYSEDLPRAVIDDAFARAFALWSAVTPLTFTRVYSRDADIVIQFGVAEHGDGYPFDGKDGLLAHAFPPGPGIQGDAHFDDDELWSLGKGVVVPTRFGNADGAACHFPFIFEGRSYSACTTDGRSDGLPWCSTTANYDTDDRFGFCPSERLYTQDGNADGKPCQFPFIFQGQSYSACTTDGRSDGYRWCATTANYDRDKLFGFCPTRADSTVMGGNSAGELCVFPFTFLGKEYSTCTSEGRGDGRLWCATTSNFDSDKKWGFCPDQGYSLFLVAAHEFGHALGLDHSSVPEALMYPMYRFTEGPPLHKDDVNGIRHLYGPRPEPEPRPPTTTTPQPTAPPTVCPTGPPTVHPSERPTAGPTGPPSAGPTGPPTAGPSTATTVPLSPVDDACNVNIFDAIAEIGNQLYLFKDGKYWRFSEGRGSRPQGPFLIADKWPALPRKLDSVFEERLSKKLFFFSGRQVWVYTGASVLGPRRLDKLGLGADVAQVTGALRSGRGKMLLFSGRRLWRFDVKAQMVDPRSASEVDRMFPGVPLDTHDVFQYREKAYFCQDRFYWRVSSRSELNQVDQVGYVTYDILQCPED

[16] = target: Macrophage metalloelastase (Homo sapiens, UniProt P39900); assay: Inhibition of MMP12 using Mca-Pro-cyclohexyl-Ala-Gly-Nva-His-Ala- Dap(Dnp)-NH2 as substrate by fluorometric analysis; details: read-out: IC50
Sequence of Macrophage metalloelastase (P39900 whole entry): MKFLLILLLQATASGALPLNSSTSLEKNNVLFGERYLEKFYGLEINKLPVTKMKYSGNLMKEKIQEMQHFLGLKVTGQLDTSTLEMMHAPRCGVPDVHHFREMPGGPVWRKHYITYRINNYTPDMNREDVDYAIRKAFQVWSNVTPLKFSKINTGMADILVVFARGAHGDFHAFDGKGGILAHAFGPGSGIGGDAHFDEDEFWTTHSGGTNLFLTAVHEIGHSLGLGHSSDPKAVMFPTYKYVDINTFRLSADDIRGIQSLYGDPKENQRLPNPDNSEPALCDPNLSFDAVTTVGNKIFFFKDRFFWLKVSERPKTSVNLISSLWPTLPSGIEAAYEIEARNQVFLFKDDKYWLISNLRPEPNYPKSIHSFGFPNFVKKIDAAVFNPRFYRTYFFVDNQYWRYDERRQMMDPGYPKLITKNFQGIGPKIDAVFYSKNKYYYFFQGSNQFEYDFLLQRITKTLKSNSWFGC

[17] = Clearance in dog at 1 mg/kg, iv and 1 mg/kg, po; type: ADME, organism-based, Canis lupus familiaris; details: in vivo
Cytochrome P450 3A4 = Cytochrome P450 3A4 (Homo sapiens, UniProt P08684); assay: Inhibition of CYP3A4; type: ADME; details: read-out: IC50
Sequence of Cytochrome P450 3A4 (P08684 whole entry): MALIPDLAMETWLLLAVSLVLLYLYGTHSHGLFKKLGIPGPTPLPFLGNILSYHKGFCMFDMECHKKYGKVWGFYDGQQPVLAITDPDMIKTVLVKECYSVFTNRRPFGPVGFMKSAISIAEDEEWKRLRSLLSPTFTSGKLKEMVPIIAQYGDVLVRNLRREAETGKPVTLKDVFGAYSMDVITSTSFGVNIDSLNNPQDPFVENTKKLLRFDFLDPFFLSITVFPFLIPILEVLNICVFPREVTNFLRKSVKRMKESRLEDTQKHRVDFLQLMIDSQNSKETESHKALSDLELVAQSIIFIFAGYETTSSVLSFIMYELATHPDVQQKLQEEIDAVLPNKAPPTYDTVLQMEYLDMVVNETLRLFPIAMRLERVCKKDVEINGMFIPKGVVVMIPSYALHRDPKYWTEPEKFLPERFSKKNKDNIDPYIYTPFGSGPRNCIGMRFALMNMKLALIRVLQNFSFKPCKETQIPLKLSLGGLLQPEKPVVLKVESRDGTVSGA

Stromelysin-1 = Stromelysin-1 (Homo sapiens, UniProt P08254); assay: Inhibition of MMP3 using Mca-Pro-cyclohexyl-Ala-Gly-Nva-His-Ala- Dap(Dnp)-NH2 as substrate by fluorometric analysis
Sequence of Stromelysin-1 (P08254 whole entry): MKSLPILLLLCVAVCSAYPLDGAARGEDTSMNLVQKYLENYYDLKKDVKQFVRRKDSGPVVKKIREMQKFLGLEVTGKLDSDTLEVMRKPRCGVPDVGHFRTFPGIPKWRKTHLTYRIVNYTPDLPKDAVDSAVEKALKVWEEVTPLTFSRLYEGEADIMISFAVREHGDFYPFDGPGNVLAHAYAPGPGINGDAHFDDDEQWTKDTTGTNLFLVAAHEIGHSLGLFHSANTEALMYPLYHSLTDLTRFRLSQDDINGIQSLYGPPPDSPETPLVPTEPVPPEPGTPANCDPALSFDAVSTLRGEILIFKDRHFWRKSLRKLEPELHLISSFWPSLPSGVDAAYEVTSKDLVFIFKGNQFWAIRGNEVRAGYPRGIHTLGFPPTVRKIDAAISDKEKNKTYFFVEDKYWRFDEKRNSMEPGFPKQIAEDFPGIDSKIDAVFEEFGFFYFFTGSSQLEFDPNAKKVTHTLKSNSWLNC

[18] = Volume of distribution at steady state in dog at 1 mg/kg, iv and 1 mg/kg, po; type: ADME, organism-based, Canis lupus familiaris; details: in vivo, read-out: Vdss
[19] = Oral bioavailability in dog; type: ADME, organism-based, Canis lupus familiaris; details: in vivo
[20] = Lipophilicity, log D of the compound; details: octanol/water
[21] = target: Matrix metalloproteinase-14 (Homo sapiens, UniProt P50281); assay: Inhibition of MMP14 using Mca-Pro-cyclohexyl-Ala-Gly-Nva-His-Ala- Dap(Dnp)-NH2 as substrate by fluorometric analysis; details: read-out: IC50

For `O=C(NC1CCCS(=O)(=O)C1)c1ccc(Oc2ccc(C#C[C@]3(O)CN4CCC3CC4)cc2)cc1` (single isomer, unassigned; diastereomer 1), the Papp A→B at 10 µM [1] was 1.3 ×10⁻⁶ cm/s, the Vd [2] was 5.9 L/kg and the fraction unbound [3] was 0.33. For the same molecule, the half-life [4] was 4.8 h, the pIC50 (Cytochrome P450 2C19) was less than 5.00 and the CLH (Hepatocyte) was 2.9 µL/min. The pIC50 (Interstitial collagenase) was less than 5.00, the Therm_solubility [5] was 160 µM and the half-life [6] was 5 h. For the same molecule, the fraction unbound [7] was 0.27, the pIC50 (Cytochrome P450 2C9) was less than 5.00 and the hepatocyte CLint [8] was less than 2 µL/min/1e6 cells. It also gave a pEC50 [9] of 3.94, a pIC50 [10] of less than 5.00 and a fraction unbound [11] of 0.25. It also gave a dose excreted [12] of less than 1%, an F (Rattus norvegicus) of 35% and a Papp B→A at 10 µM [13] of 43.5 ×10⁻⁶ cm/s. The pIC50 [14] was 5.29, the pIC50 (Cytochrome P450 2D6) was less than 5.00 and the pIC50 [15] was less than 5.00. For the same molecule, the pIC50 [16] was less than 5.00, the clearance [17] was 13 mL/min/kg and the pIC50 (Cytochrome P450 3A4) was less than 5.00. For the same molecule, the pIC50 (Stromelysin-1) was less than 5.00, the Vd [18] was 3.9 L/kg and the bioavailability [19] was 21%. The logD [20] was 1.4 and the pIC50 [21] was less than 5.00.
